Results published in patent US20230085307A1, “PYRIDAZINONE COMPOUND AND HERBICIDE” (NISSAN CHEMICAL CORPORATION, priority 2019, published 2023).

Tests used:
late watergrass = test: Test Example 2: herbicidal activity, application during weed generation under submerged conditions (Table 17, symbol A); format: in vivo, late watergrass (Echinochloa oryzicola); details: application during weed generation, submerged conditions
Summary of the method: (§1)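 In this pot test, flooded alluvial soil (water depth 4 cm) holds all three species sown as a mixture. Once seedlings have one to two leaves, the compound's emulsion, thinned with water to the intended dose, is poured on the water; grading follows after three weeks on the earlier criteria.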

redroot pigweed = test: Test Example 4: herbicidal effect by soil treatment (Table 19, symbol N); format: in vivo, redroot pigweed (Amaranthus retroflexus)
Summary of the method: (§2)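 Pre-emergence style soil spray: seeds under ~1.5 cm sterilized diluvial soil received a uniform coat of emulsion diluted to the predetermined herbicide amount. Greenhouse 25–30° C; readout at week three on previously defined criteria.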

Italian ryegrass = test: Test Example 5: herbicidal effect by foliage application, plastic box (Table 20, symbol K); format: in vivo, Italian ryegrass (Lolium multiflorum); details: foliage application, 3 weeks after application
Summary of the method: (§3)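 Plants were sown into sterilized diluvial soil under about 1.5 cm cover and kept in a greenhouse at 25° C. to 30° C. Fourteen days on, foliage received an even spray of the diluted emulsion. Herbicidal or crop effect was judged three weeks afterwards.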

oval-leafed pondweed = test: Test Example 2: herbicidal activity, application during weed generation under submerged conditions (Table 17, symbol C); format: in vivo, oval-leafed pondweed (Monochoria vaginalis); details: application during weed generation, submerged conditions
Summary of the method: as §1

southern crabgrass = test: Test Example 4: herbicidal effect by soil treatment (Table 19, symbol F); format: in vivo, southern crabgrass (Digitaria ciliaris)
Summary of the method: as §2

blackgrass = test: Test Example 4: herbicidal effect by soil treatment (Table 19, symbol J); format: in vivo, blackgrass (Alopecurus myosuroides)
Summary of the method: as §2

velvetleaf = test: Test Example 4: herbicidal effect by soil treatment (Table 19, symbol M); format: in vivo, velvetleaf (Abutilon theophrasti)
Summary of the method: as §2

wild oat = test: Test Example 4: herbicidal effect by soil treatment (Table 19, symbol I); format: in vivo, wild oat (Avena fatua)
Summary of the method: as §2

green foxtail [1] = test: Test Example 5: herbicidal effect by foliage application, plastic box (Table 20, symbol G); format: in vivo, green foxtail (Setaria viridis); details: foliage application, 3 weeks after application
Summary of the method: as §3

lambsquarters = test: Test Example 5: herbicidal effect by foliage application, plastic box (Table 20, symbol O); format: in vivo, lambsquarters (Chenopodium album); details: foliage application, 3 weeks after application
Summary of the method: as §3

persian speedwell = test: Test Example 5: herbicidal effect by foliage application, plastic box (Table 20, symbol R); format: in vivo, Persian speedwell (Veronica persica); details: foliage application, 3 weeks after application
Summary of the method: as §3

false cleavers = test: Test Example 4: herbicidal effect by soil treatment (Table 19, symbol Q); format: in vivo, false cleavers (Galium spurium)
Summary of the method: as §2

barnyard grass = test: Test Example 4: herbicidal effect by soil treatment (Table 19, symbol H); format: in vivo, barnyard grass (Echinochloa crus-galli)
Summary of the method: as §2

Japanese bulrush = test: Test Example 2: herbicidal activity, application during weed generation under submerged conditions (Table 17, symbol B); format: in vivo, Japanese bulrush (Schoenoplectus juncoides); details: application during weed generation, submerged conditions
Summary of the method: as §1

green foxtail [2] = test: Test Example 4: herbicidal effect by soil treatment (Table 19, symbol G); format: in vivo, green foxtail (Setaria viridis)
Summary of the method: as §2

C#CC(C)Oc1ccc(-c2sc3ccccc3c2-c2c(OCOCCOC)c(C)nn(C)c2=O)cc1 (racemic) [1-218]
herbicidal effect rating, A: late watergrass (late watergrass; AAH 100 g/ha): 3 (Herbicidal rate of 40% or more and less than 70%) | N: redroot pigweed, herbicidal effect rating (redroot pigweed; AAH 187 g/ha): 2 (Herbicidal rate of 20% or more and less than 40%) | effect on Italian ryegrass (K) (Italian ryegrass; 187 g/ha): 2 (Herbicidal rate of 20% or more and less than 40%) | herbicidal effect rating, C: oval-leafed pondweed (oval-leafed pondweed; AAH 100 g/ha): 4 (Herbicidal rate of 70% or more and less than 90%) | F: southern crabgrass, herbicidal effect rating (southern crabgrass; AAH 187 g/ha): 0 (Herbicidal rate of 5% or less (almost no effect)) | J: blackgrass, herbicidal effect rating (blackgrass; AAH 187 g/ha): 0 (Herbicidal rate of 5% or less (almost no effect)) | M: velvetleaf, herbicidal effect rating (velvetleaf; AAH 187 g/ha): 0 (Herbicidal rate of 5% or less (almost no effect)) | I: wild oat, herbicidal effect rating (wild oat; AAH 187 g/ha): 0 (Herbicidal rate of 5% or less (almost no effect)) | effect on green foxtail (G) (green foxtail [1]; 187 g/ha): 5 (Herbicidal rate of 90% or more (almost completely withered)) | effect on lambsquarters (O) (lambsquarters; 187 g/ha): 4 (Herbicidal rate of 70% or more and less than 90%) | effect on persian speedwell (R) (persian speedwell; 187 g/ha): 5 (Herbicidal rate of 90% or more (almost completely withered)) | Q: false cleavers, herbicidal effect rating (false cleavers; AAH 187 g/ha): 0 (Herbicidal rate of 5% or less (almost no effect)) | H: barnyard grass, herbicidal effect rating (barnyard grass; AAH 187 g/ha): 2 (Herbicidal rate of 20% or more and less than 40%) | herbicidal effect rating, B: Japanese bulrush (Japanese bulrush; AAH 100 g/ha): 3 (Herbicidal rate of 40% or more and less than 70%) | G: green foxtail, herbicidal effect rating (green foxtail [2]; AAH 187 g/ha): 3 (Herbicidal rate of 40% or more and less than 70%)

Cc1nn(C)c(=O)c(-c2c(-c3ccc(OCCBr)cc3)sc3ccccc23)c1O [1-204]
herbicidal effect rating, A: late watergrass (late watergrass; AAH 320 g/ha): 0 (Herbicidal rate of 5% or less (almost no effect)) | N: redroot pigweed, herbicidal effect rating (redroot pigweed; AAH 320 g/ha): 3 (Herbicidal rate of 40% or more and less than 70%) | effect on Italian ryegrass (K) (Italian ryegrass; 320 g/ha): 3 (Herbicidal rate of 40% or more and less than 70%) | herbicidal effect rating, C: oval-leafed pondweed (oval-leafed pondweed; AAH 320 g/ha): 2 (Herbicidal rate of 20% or more and less than 40%) | F: southern crabgrass, herbicidal effect rating (southern crabgrass; AAH 320 g/ha): 0 (Herbicidal rate of 5% or less (almost no effect)) | J: blackgrass, herbicidal effect rating (blackgrass; AAH 320 g/ha): 0 (Herbicidal rate of 5% or less (almost no effect)) | M: velvetleaf, herbicidal effect rating (velvetleaf; AAH 320 g/ha): 0 (Herbicidal rate of 5% or less (almost no effect)) | I: wild oat, herbicidal effect rating (wild oat; AAH 320 g/ha): 0 (Herbicidal rate of 5% or less (almost no effect)) | effect on green foxtail (G) (green foxtail [1]; 320 g/ha): 4 (Herbicidal rate of 70% or more and less than 90%) | effect on lambsquarters (O) (lambsquarters; 320 g/ha): 4 (Herbicidal rate of 70% or more and less than 90%) | effect on persian speedwell (R) (persian speedwell; 320 g/ha): 5 (Herbicidal rate of 90% or more (almost completely withered)) | Q: false cleavers, herbicidal effect rating (false cleavers; AAH 320 g/ha): 0 (Herbicidal rate of 5% or less (almost no effect)) | H: barnyard grass, herbicidal effect rating (barnyard grass; AAH 320 g/ha): 0 (Herbicidal rate of 5% or less (almost no effect)) | herbicidal effect rating, B: Japanese bulrush (Japanese bulrush; AAH 320 g/ha): 3 (Herbicidal rate of 40% or more and less than 70%) | G: green foxtail, herbicidal effect rating (green foxtail [2]; AAH 320 g/ha): 0 (Herbicidal rate of 5% or less (almost no effect))

C=C(C)COc1ccc(-c2sc3ccccc3c2-c2c(O)c(C)nn(C)c2=O)cc1 [1-208]
herbicidal effect rating, A: late watergrass (late watergrass; AAH 320 g/ha): 5 (Herbicidal rate of 90% or more (almost completely withered)) | N: redroot pigweed, herbicidal effect rating (redroot pigweed; AAH 320 g/ha): 0 (Herbicidal rate of 5% or less (almost no effect)) | effect on Italian ryegrass (K) (Italian ryegrass; 320 g/ha): 5 (Herbicidal rate of 90% or more (almost completely withered)) | herbicidal effect rating, C: oval-leafed pondweed (oval-leafed pondweed; AAH 320 g/ha): 3 (Herbicidal rate of 40% or more and less than 70%) | F: southern crabgrass, herbicidal effect rating (southern crabgrass; AAH 320 g/ha): 0 (Herbicidal rate of 5% or less (almost no effect)) | J: blackgrass, herbicidal effect rating (blackgrass; AAH 320 g/ha): 0 (Herbicidal rate of 5% or less (almost no effect)) | M: velvetleaf, herbicidal effect rating (velvetleaf; AAH 320 g/ha): 0 (Herbicidal rate of 5% or less (almost no effect)) | I: wild oat, herbicidal effect rating (wild oat; AAH 320 g/ha): 0 (Herbicidal rate of 5% or less (almost no effect)) | effect on green foxtail (G) (green foxtail [1]; 320 g/ha): 5 (Herbicidal rate of 90% or more (almost completely withered)) | effect on lambsquarters (O) (lambsquarters; 320 g/ha): 5 (Herbicidal rate of 90% or more (almost completely withered)) | effect on persian speedwell (R) (persian speedwell; 320 g/ha): 5 (Herbicidal rate of 90% or more (almost completely withered)) | Q: false cleavers, herbicidal effect rating (false cleavers; AAH 320 g/ha): 0 (Herbicidal rate of 5% or less (almost no effect)) | H: barnyard grass, herbicidal effect rating (barnyard grass; AAH 320 g/ha): 0 (Herbicidal rate of 5% or less (almost no effect)) | herbicidal effect rating, B: Japanese bulrush (Japanese bulrush; AAH 320 g/ha): 3 (Herbicidal rate of 40% or more and less than 70%) | G: green foxtail, herbicidal effect rating (green foxtail [2]; AAH 320 g/ha): 0 (Herbicidal rate of 5% or less (almost no effect))

Cc1nn(C)c(=O)c(-c2c(-c3ccc(OCCC4OCCO4)cc3)sc3ccccc23)c1O [1-223]
herbicidal effect rating, A: late watergrass (late watergrass; AAH 246 g/ha): 3 (Herbicidal rate of 40% or more and less than 70%) | N: redroot pigweed, herbicidal effect rating (redroot pigweed; AAH 246 g/ha): 4 (Herbicidal rate of 70% or more and less than 90%) | effect on Italian ryegrass (K) (Italian ryegrass; 246 g/ha): 3 (Herbicidal rate of 40% or more and less than 70%) | herbicidal effect rating, C: oval-leafed pondweed (oval-leafed pondweed; AAH 246 g/ha): 3 (Herbicidal rate of 40% or more and less than 70%) | F: southern crabgrass, herbicidal effect rating (southern crabgrass; AAH 246 g/ha): 0 (Herbicidal rate of 5% or less (almost no effect)) | J: blackgrass, herbicidal effect rating (blackgrass; AAH 246 g/ha): 0 (Herbicidal rate of 5% or less (almost no effect)) | M: velvetleaf, herbicidal effect rating (velvetleaf; AAH 246 g/ha): 0 (Herbicidal rate of 5% or less (almost no effect)) | I: wild oat, herbicidal effect rating (wild oat; AAH 246 g/ha): 0 (Herbicidal rate of 5% or less (almost no effect)) | effect on green foxtail (G) (green foxtail [1]; 246 g/ha): 5 (Herbicidal rate of 90% or more (almost completely withered)) | effect on lambsquarters (O) (lambsquarters; 246 g/ha): 5 (Herbicidal rate of 90% or more (almost completely withered)) | effect on persian speedwell (R) (persian speedwell; 246 g/ha): 5 (Herbicidal rate of 90% or more (almost completely withered)) | Q: false cleavers, herbicidal effect rating (false cleavers; AAH 246 g/ha): 0 (Herbicidal rate of 5% or less (almost no effect)) | H: barnyard grass, herbicidal effect rating (barnyard grass; AAH 246 g/ha): 3 (Herbicidal rate of 40% or more and less than 70%) | herbicidal effect rating, B: Japanese bulrush (Japanese bulrush; AAH 246 g/ha): 3 (Herbicidal rate of 40% or more and less than 70%) | G: green foxtail, herbicidal effect rating (green foxtail [2]; AAH 246 g/ha): 2 (Herbicidal rate of 20% or more and less than 40%)

CCCOc1ccc(-c2sc3ccc(F)cc3c2-c2c(O)c(C)nn(C)c2=O)cc1 [2-032]
herbicidal effect rating, A: late watergrass (late watergrass; AAH 320 g/ha): 1 (Herbicidal rate of 5% or more and less than 20%) | herbicidal effect rating, N: redroot pigweed (redroot pigweed; 320 g/ha): 5 (Herbicidal rate of 90% or more (almost completely withered)) | effect on Italian ryegrass (K) (Italian ryegrass; 320 g/ha): 4 (Herbicidal rate of 70% or more and less than 90%) | herbicidal effect rating, C: oval-leafed pondweed (oval-leafed pondweed; AAH 320 g/ha): 5 (Herbicidal rate of 90% or more (almost completely withered)) | herbicidal effect rating, F: southern crabgrass (southern crabgrass; 320 g/ha): 2 (Herbicidal rate of 20% or more and less than 40%) | herbicidal effect rating, J: blackgrass (blackgrass; 320 g/ha): 0 (Herbicidal rate of 5% or less (almost no effect)) | herbicidal effect rating, M: velvetleaf (velvetleaf; 320 g/ha): 5 (Herbicidal rate of 90% or more (almost completely withered)) | herbicidal effect rating, I: wild oat (wild oat; 320 g/ha): 0 (Herbicidal rate of 5% or less (almost no effect)) | effect on green foxtail (G) (green foxtail [1]; 320 g/ha): 5 (Herbicidal rate of 90% or more (almost completely withered)) | effect on lambsquarters (O) (lambsquarters; 320 g/ha): 5 (Herbicidal rate of 90% or more (almost completely withered)) | effect on persian speedwell (R) (persian speedwell; 320 g/ha): 5 (Herbicidal rate of 90% or more (almost completely withered)) | herbicidal effect rating, Q: false cleavers (false cleavers; 320 g/ha): 0 (Herbicidal rate of 5% or less (almost no effect)) | herbicidal effect rating, H: barnyard grass (barnyard grass; 320 g/ha): 2 (Herbicidal rate of 20% or more and less than 40%) | herbicidal effect rating, B: Japanese bulrush (Japanese bulrush; AAH 320 g/ha): 4 (Herbicidal rate of 70% or more and less than 90%) | herbicidal effect rating, G: green foxtail (green foxtail [2]; 320 g/ha): 3 (Herbicidal rate of 40% or more and less than 70%)
